Measured values: paper PMC11246197 (Journal of medicinal chemistry, 2024)
Like-named read-outs stand apart in the source and are kept apart here.

Experiments:
BEAS-2B cells = type: cell-based, human; conditions: BNPP (CES1 inhibitor) up to 20 μM co-incubated with 10 μM ProTide
[1] = Plasma PK after oral administration in Ces1c−/− mice; conditions: 54.4 μmole/kg
[2] = Prodrug hydrolysis in human liver S9 fractions; type: in vitro ADME; conditions: 15 min incubation
[3] = Prodrug hydrolysis in human intestine S9 fractions; type: in vitro ADME; conditions: 15 min incubation
[4] = biological target: T1, recombinant human CES1 (rhCES1) (Homo sapiens, UniProt P23141); assay: Hydrolysis of ProTides by recombinant human CES1; type: biochemical; conditions: 20 μM prodrug, 40 ng/μL rhCES1, 20 min, Tris buffer pH 7.5, 37 °C, n = 3
T1 sequence (P23141 18-567): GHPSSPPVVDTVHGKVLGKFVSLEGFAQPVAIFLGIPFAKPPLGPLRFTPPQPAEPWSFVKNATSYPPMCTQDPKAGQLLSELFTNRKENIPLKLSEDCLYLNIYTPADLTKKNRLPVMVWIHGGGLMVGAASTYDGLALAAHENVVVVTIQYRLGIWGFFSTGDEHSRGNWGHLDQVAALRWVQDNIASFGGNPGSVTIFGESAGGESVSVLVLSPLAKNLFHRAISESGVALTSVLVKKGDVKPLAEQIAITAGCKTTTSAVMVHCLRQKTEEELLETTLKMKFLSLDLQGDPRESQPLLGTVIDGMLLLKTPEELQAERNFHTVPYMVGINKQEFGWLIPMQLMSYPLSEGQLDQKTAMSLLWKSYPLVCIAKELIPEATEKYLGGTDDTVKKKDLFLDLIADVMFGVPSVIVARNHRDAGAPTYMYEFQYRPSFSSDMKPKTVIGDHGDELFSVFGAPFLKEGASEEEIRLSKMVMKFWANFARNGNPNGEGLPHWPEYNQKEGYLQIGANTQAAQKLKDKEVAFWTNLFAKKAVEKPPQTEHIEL

[5] = Ex vivo human plasma stability; conditions: 10 μM, 37 °C, 4 hours
[6] = Plasma PK after IV administration; conditions: for AUC(0-inf) / AUC(0-t) / Cmax / Vd / half-life / concentration at 15 min: male, mouse, plasma, iv; for AUC(0-inf) / AUC(0-t) / Cmax / Vd / half-life: Ces1c−/− (JAX stock # 014096)
[7] = cited from earlier work
[8] = cited from earlier work; remark: listed apart in the source
[9] = biological target: recombinant human CatA (rhCatA) (Homo sapiens, UniProt P10619); assay: Hydrolysis of ProTides by recombinant human CatA; type: biochemical; conditions: 20 μM prodrug, 0.5 ng/μL rhCatA, 10 min, MES buffer pH 5.5, 37 °C, n = 3
[10] = 24 h, 10 μM
[11] = male, Ces1c−/− (Ces1c knockout), in vivo, iv
[12] = system: human bronchial epithelial cells; conditions: within 48 hours after drug treatment; cited from earlier work
[13] = cited from earlier work; remark: listed apart in the source
VeroE6 cells = conditions: read-out: 50% cytotoxic concentration (CC50); cited from earlier work
iPSC-AT2 = conditions: read-out: 50% cytotoxic concentration (CC50); cited from earlier work
[14] = wild-type mice; cited from earlier work
lung virus titers = conditions: 2 days post infection, cited from earlier work
[15] = IV bolus, 54.4 μmole/kg, Ces1c−/− mice

recombinant human CatA (rhCatA), sequence (P10619 327-480): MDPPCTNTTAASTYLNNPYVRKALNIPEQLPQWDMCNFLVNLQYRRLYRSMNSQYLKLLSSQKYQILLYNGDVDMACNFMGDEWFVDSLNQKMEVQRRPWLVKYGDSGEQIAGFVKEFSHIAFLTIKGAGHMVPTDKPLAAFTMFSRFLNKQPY
recombinant human CatA (rhCatA), sequence (P10619 29-326): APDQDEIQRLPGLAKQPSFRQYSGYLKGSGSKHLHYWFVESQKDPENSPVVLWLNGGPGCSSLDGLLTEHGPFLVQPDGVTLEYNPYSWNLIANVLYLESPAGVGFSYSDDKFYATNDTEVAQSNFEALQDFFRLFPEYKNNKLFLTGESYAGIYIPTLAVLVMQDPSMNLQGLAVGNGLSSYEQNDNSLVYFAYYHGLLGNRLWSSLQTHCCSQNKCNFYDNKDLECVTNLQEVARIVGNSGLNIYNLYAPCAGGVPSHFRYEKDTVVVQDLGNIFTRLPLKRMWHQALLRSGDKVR

SMILES: O=[N+]([O-])c1ccc(OP(=O)(O)Oc2ccc([N+](=O)[O-])cc2)cc1 [BNPP, Bis-(p-nitrophenyl) phosphate]
- Effect of inhibitor on the formation of RDV-TP (BEAS-2B cells): did not significantly alter

SMILES: CC(C)C(=O)OC[C@H]1O[C@@](C#N)(c2ccc3c(N)ncnn23)[C@H](OC(=O)C(C)C)[C@@H]1OC(=O)C(C)C [GS-621763]
- Prodrug form in plasma after oral administration [1]: barely detected
- Prodrug remaining in human liver homogenate [2]: could barely be detected
- Prodrug remaining in human intestine homogenate [3]: could barely be detected

SMILES: CC(C)OC(=O)[C@H](C)N[P@](=O)(OC[C@H]1O[C@@](C#N)(c2ccc3c(N)ncnn23)[C@H](O)[C@@H]1O)Oc1ccccc1 [IsoRDV]
- Activity of rhCES1 for prodrug hydrolysis [4]: 7.7 ± 1.4 pmol/min/μg protein
- Hydrolyzed in human plasma [5]: ~15%
- AUC0-∞ of the administered compound in plasma [6, 15]: 4,950.3 ± 628.2 h⋅nM
- CL/F of the administered compound [6, 15]: 0.28 ± 0.03 L⋅h^−1
- Vd (apparent distribution volume) [6, 15]: 0.42 ± 0.17 L
- t1/2 of the administered compound in plasma [6, 15]: 1.04 ± 0.33 h
- AUC0-t of the administered compound in plasma ([6]; IV bolus, 54.4 μmole/kg, Ces1c−/− mice, AUC0-t(8h)): 4,941.6 ± 626.4 h⋅nM
- Oral bioavailability (estimated) [1]: less than 2%
- Prodrug form in plasma after oral administration [1]: barely detected
- logD [7]: 1.1
- Stability in human plasma [8]: 1561 min
- Activity of rhCatA for prodrug hydrolysis [9]: 236.7 ± 172.8 pmol/min/μg protein

SMILES: N#C[C@@]1(c2ccc3c(N)ncnn23)O[C@H](CO)[C@@H](O)[C@H]1O [Nuc]
- Reduction after incubation with human plasma [10]: 5%
- RDV-TP concentrations in the mouse lung relative to estimated EC50/EC90 [11]: constantly below EC50
- CL/F of the administered compound [6, 15]: 0.052 ± 0.002 L⋅h^−1
- AUC(0-inf) ([6]; 54.4 μmole/kg): 26.3 µM·h
- AUC(0-t) ([6]; 54.4 μmole/kg): 25.1 µM·h
- Cmax ([6]; 54.4 μmole/kg): 18.1 µM
- Vd ([6]; 54.4 μmole/kg): 0.47 ± 0.29 L
- half-life ([6]; 54.4 μmole/kg): 6.34 ± 4.01 h
- concentration at 15 min ([6]; 54.4 μmole/kg): 18.1 µM
- RDV-TP levels, fold lower than RDV [12]: at least 40 fold

SMILES: CCC(CC)COC(=O)[C@H](C)N[P@](=O)(OC[C@H]1O[C@@](C#N)(c2ccc3c(N)ncnn23)[C@H](O)[C@@H]1O)Oc1ccccc1 [RDV, remdesivir]
- Activity of rhCES1 for prodrug hydrolysis [4]: 15.5 ± 1.8 pmol/min/μg protein
- Plasma half-life in Ces1c−/− mice [13]: ~ 25 min
- Hydrolyzed in human plasma [5]: approximately 70%
- CL/F of the administered compound [6, 15]: 1.06 ± 0.44 L⋅h^−1
- Presence in plasma 4 hours after IV administration [6, 15]: barely detectable
- AUC(0-inf) ([6]; 54.4 μmole/kg): 1.58 µM·h
- AUC(0-t) ([6]; 54.4 μmole/kg): 1.57 µM·h
- Cmax ([6]; 54.4 μmole/kg): 1.37 µM
- Vd ([6]; 54.4 μmole/kg): 1.91 ± 0.94 L
- half-life ([6]; 54.4 μmole/kg): 1.25 ± 0.39 h
- concentration at 15 min ([6]; 54.4 μmole/kg): 1.37 µM
- Portion of plasma RDV that disappeared ([6]; within 30 minutes after IV administration): about 90%
- Prodrug form in plasma after oral administration [1]: barely detected
- CC50 (VeroE6 cells): 101 µM
- Half-life in human plasma [8]: 1.15 h
- Half-life in human plasma ex vivo [8]: 1.15 h
- Stability in human plasma [8]: 69 min
- CC50 (iPSC-AT2): 32.7 µM
- Plasma half-life in mice [14]: < 5 min
- Effect on lung virus titers (lung virus titers; 25 mg/kg twice daily): significantly reduced the lung virus titers
- Effect on lung virus titers (lung virus titers; 50 mg/kg single dose daily): could not
- Activity of rhCatA for prodrug hydrolysis [9]: 1,786.5 ± 179.2 pmol/min/μg protein
